The subject of one assay is HCT116 GCN2KO. Put plainly: Proliferation of HCT116 cells with GCN2 knocked out (CRISPR), Cell TiterGlo. Format: cell-based, human. Particulars: Homo sapiens, HCT-116; HCT116 cells with GCN2 knocked out using CRISPR; read-out: HCT116 IC50 (uM) HCT116 − GCN2KO. As to the method:
Briefly, compounds were tested for their effect on proliferation of HCT116 colorectal cell lines using Cell TiterGlo (Promega). Each compound was tested in a 10-point dose response experiment in triplicate. Multiple values in the column titled HCT116 WT reflect separate independent experiments. The three columns titled “HCT116 WT (repeat)”, “HCT116-CGN2KO” and “HCT116 WT+ISRIB” provide data for selected compounds that were tested simultaneously under three conditions. The HCT116 WT column lists IC50 against the wild type HCT116 colorectal cancer cell line. The HCT116-CGN2KO lists IC50 data for cells in which one component of the integrated stress response, GCN2, has been knocked out using CRISPR technology.

The subject of the next assay is HCT116 WT. The assay can be described thus: Proliferation of HCT116 colorectal cell line, Cell TiterGlo. Type of assay: cell-based, human. The essentials:
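Cell viability by CellTiter-Glo in parental HCT116, in a GCN2-knockout line, and in parental cells co-treated with ISRIB. IC50 from triplicate 10-point titrations; repeated values come from separate runs.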

Where [1] appears, read: Homo sapiens, HCT-116, wild type HCT116, 10-point dose response in triplicate, multiple values = separate independent experiments, read-out: HCT116 IC50 (uM) HCT116 WT.
[2] abbreviates: Homo sapiens, HCT-116, wild type HCT116, tested simultaneously with GCN2KO and +ISRIB, read-out: HCT116 IC50 (uM) HCT116 WT (repeat).
Setting [3] is: wild type HCT116, compound plus 10 nM of ISRIB, read-out: HCT116 IC50 (uM) HCT116 WT + ISRIB.

Structures are written as SMILES. Read-outs that look alike come from different tables or passages of the source.

With `COc1ccccc1C(=O)Nc1ccc(-c2cc(NC(=O)c3ccccc3)n(C)n2)cc1` [SW389001, N-(4-(5-Benzamido-1-methyl-1H-pyrazol-3-yl)phenyl)-2-methoxybenzamide], the IC50 in the assay with HCT116 GCN2KO is 6.44 µM; with HCT116 WT (setting [1]), 0.31 µM; in the assay with HCT116 WT (setting [2]), 0.84 µM; in the assay on HCT116 WT (setting [3]), 7 µM.
For `Cn1nc(-c2ccc(NC(=O)c3ccc(C(=O)c4ccccc4)cc3)cc2)cc1NC(=O)c1ccccc1` [SW389002, N-(4-(5-Benzamido-1-methyl-1H-pyrazol-3-yl)phenyl)-4-benzoylbenzamide] the same measures were 31.9 µM, 7.1 µM, 26.4 µM and 46.3 µM.
For `Cn1nc(-c2ccc(NC(=O)c3cccc(C(=O)c4ccccc4)c3)cc2)cc1NC(=O)c1ccccc1` [SW389004, N-(4-(5-Benzamido-1-methyl-1H-pyrazol-3-yl)phenyl)-3-benzoylbenzamide] the same measures were 7.75 µM, 5.7 µM, 7.47 µM and 7.22 µM.
Taken in the same sequence, the figures for `C#Cc1cccc(C(=O)Nc2cc(-c3ccc(NC(=O)c4ccccc4)cc3)nn2C)c1` [SW389005, N-(3-(4-Benzamidophenyl)-1-methyl-1H-pyrazol-5-yl)-3-ethynylbenzamide] were 2.97 µM, 0.313 µM, 0.33 µM and 2.96 µM.
Take `COc1ccccc1C(=O)Nc1cc(-c2ccc(NC(=O)c3ccccc3)cc2)nn1C` [SW389006, N-(3-(4-Benzamidophenyl)-1-methyl-1H-pyrazol-5-yl)-2-methoxybenzamide]: the half-inhibitory concentration (IC50) worked out at 2.34 µM in the assay with HCT116 GCN2KO, 1.23 µM in the assay on HCT116 WT (setting [1]), 0.82 µM in the assay on HCT116 WT (setting [2]) and 2.4 µM in the assay with HCT116 WT (setting [3]).
For `C#Cc1ccc(C(=O)Nc2ccc(-c3cc(NC(=O)c4ccccc4)n(C)n3)cc2)cc1` [SW389007, N-(4-(5-Benzamido-1-methyl-1H-pyrazol-3-yl)phenyl)-4-ethynylbenzamide] the same measures were 5.22 µM, 2 µM, 4.8 µM and 4.42 µM.
For the molecule `C#Cc1ccc(C(=O)Nc2cc(-c3ccc(NC(=O)c4ccccc4)cc3)nn2C)cc1` [SW389008, N-(3-(4-Benzamidophenyl)-1-methyl-1H-pyrazol-5-yl)-4-ethynylbenzamide], the concentration for half-maximal inhibition (IC50) in the assay on HCT116 GCN2KO is ≥ 50 µM; with HCT116 WT (setting [1]) it was > 50 µM; in the assay with HCT116 WT (setting [2]) it was ≥ 50 µM.
Consider `C#CCOc1ccc(C(=O)c2ccc(C(=O)Nc3ccc(-c4cc(NC(=O)c5ccccc5)n(C)n4)cc3)cc2)cc1` [SW389010, N-(4-(5-Benzamido-1-methyl-1H-pyrazol-3-yl)phenyl)-4-(4-(prop-2-yn-1-yloxy)benzoyl)benzamide], for which the IC50 was determined as 41.1 µM in the assay with HCT116 GCN2KO, 20 µM in the assay on HCT116 WT (setting [1]) and 43.1 µM in the assay with HCT116 WT (setting [2]).
Taken in the same sequence, the figures for `C#CCOc1ccc(C(=O)c2ccc(C(=O)Nc3cc(-c4ccc(NC(=O)c5ccccc5)cc4)nn3C)cc2)cc1` [SW389012, N-(3-(4-Benzamidophenyl)-1-methyl-1H-pyrazol-5-yl)-4-(4-(prop-2-yn-1-yloxy)benzoyl)benzamide] were 19.2 µM, > 50 µM and 7.01 µM.
Turning to `C#Cc1cccc(C(=O)Nc2ccc(-c3cc(NC(=O)c4ccccc4)n(C)n3)cc2)c1` [SW389013, N-(4-(5-Benzamido-1-methyl-1H-pyrazol-3-yl)phenyl)-3-ethynylbenzamide], the IC50 in the assay with HCT116 GCN2KO stood at 15.8 µM; with HCT116 WT (setting [1]), 2.79 µM; with HCT116 WT (setting [2]), 4.21 µM; in the assay with HCT116 WT (setting [3]), 19.8 µM.
Taken in the same sequence, the figures for `C#CCOc1ccc(C(=O)c2cccc(C(=O)Nc3cc(-c4ccc(NC(=O)c5ccccc5)cc4)nn3C)c2)cc1` [SW389152, N-(3-(4-Benzamidophenyl)-1-methyl-1H-pyrazol-5-yl)-3-(4-(prop-2-yn-1-yloxy)benzoyl)benzamide] were 0.65 µM, 0.305 µM, 0.31 µM and 0.71 µM.
For `COC(=O)c1cccc(C(=O)Nc2cc(-c3ccc(NC(=O)c4ccccc4)cc3)nn2C)c1` [SW389153, Methyl 3-((3-(4-benzamidophenyl)-1-methyl-1H-pyrazol-5-yl)carbamoyl)benzoate] the same measures were 1.31 µM, 0.208 µM, 0.2 µM and 1.73 µM.
Consider `Cn1nc(-c2ccc(NC(=O)c3ccccc3)cc2)cc1NC(=O)c1cccc(C(=O)c2ccccc2)c1` [SW389154, N-(3-(4-Benzamidophenyl)-1-methyl-1H-pyrazol-5-yl)-3-benzoylbenzamide], for which the half-maximal inhibitory concentration (IC50) turned out to be 0.53 µM in the assay with HCT116 GCN2KO, 0.195 µM in the assay with HCT116 WT (setting [1]), 0.18 µM in the assay on HCT116 WT (setting [2]) and 0.77 µM in the assay with HCT116 WT (setting [3]).
For `Cn1nc(-c2ccc(NC(=O)c3ccccc3)cc2)cc1NC(=O)c1cccc(C(F)(F)F)c1` [SW389155, N-(3-(4-Benzamidophenyl)-1-methyl-1H-pyrazol-5-yl)-3-(trifluoromethyl)benzamide] the same measures were 2.2 µM, 0.416 µM, 0.46 µM and 2.97 µM.
For `Cc1cccc(C(=O)Nc2cc(-c3ccc(NC(=O)c4ccccc4)cc3)nn2C)c1` [SW389156, N-(3-(4-Benzamidophenyl)-1-methyl-1H-pyrazol-5-yl)-3-methylbenzamide] the same measures were 2.22 µM, 0.298 µM, 0.28 µM and 2.45 µM.
For `Cn1nc(-c2ccc(NC(=O)c3ccccc3)cc2)cc1NC(=O)c1cccc(N=[N+]=[N-])c1` [SW389157, 3-Azido-N-(3-(4-benzamidophenyl)-1-methyl-1H-pyrazol-5-yl)benzamide] the same measures were 2.77 µM, 0.405 µM, 0.21 µM and 2.5 µM.
Consider `Cn1nc(-c2ccc(NC(=O)c3ccccc3)cc2)cc1NC(=O)c1cccc(C#N)c1` [SW389158, N-(3-(4-Benzamidophenyl)-1-methyl-1H-pyrazol-5-yl)-3-cyanobenzamide], for which the half-maximal inhibitory concentration (IC50) in the assay on HCT116 GCN2KO was found to be 2.96 µM; with HCT116 WT (setting [1]), 0.561 µM; in the assay on HCT116 WT (setting [2]), 0.39 µM; in the assay on HCT116 WT (setting [3]) it was 3.01 µM.
For `Cn1nc(-c2ccc(NC(=O)c3ccccc3)cc2)cc1NC(=O)c1cccc(F)c1` [SW389159, N-(3-(4-Benzamidophenyl)-1-methyl-1H-pyrazol-5-yl)-3-fluorobenzamide] the same measures were 2.54 µM, 0.788 µM, 0.38 µM and 2.59 µM.
Taken in the same sequence, the figures for `Cn1nc(-c2ccc(NC(=O)c3ccccc3)cc2)cc1NC(=O)c1cccc(Cl)c1` [SW389161, N-(3-(4-benzamidophenyl)-1-methyl-1H-pyrazol-5-yl)-3-chlorobenzamide] were 11.7 µM, 1.27 µM, 1.06 µM and 8.26 µM.
Turning to `Cn1nc(-c2ccc(NC(=O)c3ccccc3)cc2)cc1NC(=O)c1cccc(Br)c1` [SW389162, N-(3-(4-benzamidophenyl)-1-methyl-1H-pyrazol-5-yl)-3-bromobenzamide], the IC50 with HCT116 GCN2KO turned out to be 3.14 µM; in the assay on HCT116 WT (setting [1]), 0.335 µM; in the assay on HCT116 WT (setting [2]) it was 0.32 µM; in the assay with HCT116 WT (setting [3]), 2.6 µM.
Turning to `Cn1nc(-c2ccc(NC(=O)c3ccc(C#N)cc3)cc2)cc1NC(=O)c1ccccc1` [SW393061, N-(4-(5-benzamido-1-methyl-1H-pyrazol-3-yl)phenyl)-4-cyanobenzamide], the IC50 in the assay on HCT116 GCN2KO and in the assay with HCT116 WT (setting [2]) was ≥ 50 µM each time. The “HCT116 IC50 (uM) HCT116 WT” value with HCT116 WT (wild type HCT116, 10-point dose response in triplicate, multiple values = separate independent experiments) was “inactive”.
`Cn1nc(-c2ccc(NC(=O)c3cccc(Cl)c3)cc2)cc1NC(=O)c1ccccc1` [SW393062, N-(4-(5-benzamido-1-methyl-1H-pyrazol-3-yl)phenyl)-3-chlorobenzamide]: the IC50 with HCT116 GCN2KO turned out to be 10.5 µM; in the assay with HCT116 WT (setting [1]), 2.1 µM; in the assay with HCT116 WT (setting [2]), 2.37 µM; in the assay with HCT116 WT (setting [3]) it was 8.72 µM.
Turning to `Cn1nc(-c2ccc(NC(=O)c3ccncc3)cc2)cc1NC(=O)c1ccccc1` [SW393063, N-(4-(5-benzamido-1-methyl-1H-pyrazol-3-yl)phenyl)isonicotinamide], the concentration for half-maximal inhibition (IC50) was 3.69 µM with HCT116 GCN2KO, 3.2 µM in the assay with HCT116 WT (setting [1]), 2.04 µM in the assay on HCT116 WT (setting [2]) and 3.1 µM with HCT116 WT (setting [3]).
On to `Cn1nc(-c2ccc(NC(=O)c3ccccc3Cl)cc2)cc1NC(=O)c1cccc(OCCNC(=S)Nc2ccc(-c3c4ccc(=O)cc-4oc4cc(O)ccc34)c(C(=O)O)c2)c1` [SW394972, 5-(3-(2-(3-((3-(4-(2-chlorobenzamido)phenyl)-1-methyl-1H-pyrazol-5-yl)carbamoyl)phenoxy)ethyl)thioureido)-2-(6-hydroxy-3-oxo-3H-xanthen-9-yl)benzoic acid], for which, in the assay on HCT116 WT (setting [1]), the IC50 was determined as 1.3 µM.

For the origin of these results see US20250257041A1, “INDUCERS OF INTEGRATED STRESS RESPONSE TO TREAT CANCER” (The Board of Regents of The University of Texas System, priority 2022, published 2025).
